What all share (format): functional
Test [1] relates to Proteus vulgaris. Put plainly: Tested for in vitro antibacterial activity against Proteus vulgaris ATCC 6380.
The subject of test [2] is Escherichia coli. The test is described as follows: Tested for in vitro antibacterial activity against Escherichia coli 257.
For test [3], the system named is Staphylococcus aureus. Put plainly: Tested for in vitro antibacterial activity against Staphylococcus aureus 753.
The subject of test [4] is Klebsiella pneumoniae. The test is described as follows: Tested for in vitro antibacterial activity against Klebsiella pneumoniae A.
The subject of test [5] is Staphylococcus aureus. The test is described as follows: Tested for in vitro antibacterial activity against Staphylococcus aureus Smith.
Test [6] concerns Enterobacter cloacae. The test is described as follows: Tested for in vitro antibacterial activity against Enterobacter cloacae P99.
For test [7], the system named is Staphylococcus aureus. The test is described as follows: Tested for in vitro antibacterial activity against Staphylococcus aureus 67.
Test [8] deals with Streptococcus pneumoniae. Put plainly: Tested for in vitro antibacterial activity against Streptococcus pneumoniae 6301.
For test [9], the system named is Pseudomonas aeruginosa. The test is described as follows: Tested for in vitro antibacterial activity against Pseudomonas aeruginosa 5712.
Test [10] concerns Escherichia coli. Put plainly: Tested for in vitro antibacterial activity against Escherichia coli TEM-1.
For test [11], the system named is Streptococcus pyogenes. Put plainly: Tested for in vitro antibacterial activity against Streptococcus pyogenes 4.
For test [12], the system named is Pseudomonas aeruginosa. Put plainly: Tested for in vitro antibacterial activity against Pseudomonas aeruginosa 18SH.
The subject of test [13] is Citrobacter freundii. The test is described as follows: Tested for in vitro antibacterial activity against Citrobacter freundii BS-16.
In test [14] the test system is Citrobacter freundii. The test is described as follows: Tested for in vitro antibacterial activity against Citrobacter freundii BS-16; inactive.
Test [15] deals with Escherichia coli. Put plainly: Tested for in vitro antibacterial activity against Escherichia coli 257; inactive.
The subject of test [16] is Staphylococcus aureus. The test is described as follows: Tested for in vitro antibacterial activity against Staphylococcus aureus 753; inactive.
Test [17] deals with Pseudomonas aeruginosa. Put plainly: Tested for in vitro antibacterial activity against Pseudomonas aeruginosa 5712; inactive.
For test [18], the system named is Proteus vulgaris. The test is described as follows: Tested for in vitro antibacterial activity against Proteus vulgaris ATCC 6380; inactive.
The test system of test [19] is Staphylococcus aureus. Put plainly: Tested for in vitro antibacterial activity against Staphylococcus aureus 67; inactive.
Test [20] deals with Klebsiella pneumoniae. Put plainly: Tested for in vitro antibacterial activity against Klebsiella pneumoniae A; inactive.
For test [21], the system named is Pseudomonas aeruginosa. The test is described as follows: Tested for in vitro antibacterial activity against Pseudomonas aeruginosa 18SH; inactive.
Test [22] relates to Streptococcus pyogenes. Put plainly: Tested for in vitro antibacterial activity against Streptococcus pyogenes 4; inactive.
The test system of test [23] is Escherichia coli. Put plainly: Tested for in vitro antibacterial activity against Escherichia coli TEM-1; inactive.
Test [24] relates to Streptococcus pneumoniae. Put plainly: Tested for in vitro antibacterial activity against Streptococcus pneumoniae 6301; inactive.
For test [25], the system named is Staphylococcus aureus. The test is described as follows: Tested for in vitro antibacterial activity against Staphylococcus aureus Smith; inactive.
Test [26] deals with Enterobacter cloacae. The test is described as follows: Tested for in vitro antibacterial activity against Enterobacter cloacae P99; inactive.

SMILES strings stand for the structures. In brackets after ≈: the same amount, converted by molar mass. Where only a bound is given, the exact number is not on record here.

Broadly, the MIC is the least concentration at which growth counts as inhibited. A lower MIC goes with a more susceptible organism. With `CO/N=C(/C(=O)NC1C(=O)N2C(C(=O)[O-])=C(CSc3nnnn3CC(=O)N3CCN(c4cc5c(cc4F)c(=O)c(C(=O)O)cn5C4CC4)CC3)CS[C@H]12)c1csc(N)n1.[Na+]` (stereo partly drawn), the minimal inhibitory concentration (MIC) with Proteus vulgaris [1] turned out to be 4 µg/mL; against Escherichia coli [2] it was 4 µg/mL; in the test with Staphylococcus aureus [3], 128 µg/mL; in the test on Klebsiella pneumoniae [4], 2 µg/mL; in the test with Staphylococcus aureus [5] it was 4 µg/mL; against Enterobacter cloacae [6] it was 16 µg/mL. The MIC was 64 µg/mL in the test with Staphylococcus aureus [7]; at most 0.0156 µg/mL in the test with Streptococcus pneumoniae [8]; above 128 µg/mL against Pseudomonas aeruginosa [9]; 2 µg/mL against Escherichia coli [10]; at most 0.0156 µg/mL with Streptococcus pyogenes [11]; 128 µg/mL with Pseudomonas aeruginosa [12]. Further, in the test with Citrobacter freundii [13], the MIC is 32 µg/mL.

Consider `O=C(O)c1cn(C2CC2)c2cc(N3CCN(C(=O)Cn4nnnc4S)CC3)c(F)cc2c1=O`, for which the MIC amounted to 4 µg/mL (≈ 8.45 µM) against Proteus vulgaris [1]; 2 µg/mL (≈ 4.22 µM) against Escherichia coli [2]; 64 µg/mL (≈ 135 µM) against Staphylococcus aureus [3]; 32 µg/mL (≈ 67.6 µM) in the test on Klebsiella pneumoniae [4]; 32 µg/mL (≈ 67.6 µM) in the test on Staphylococcus aureus [5]; 2 µg/mL (≈ 4.22 µM) against Enterobacter cloacae [6]. Moreover, the MIC against Staphylococcus aureus [7] worked out at 64 µg/mL (≈ 135 µM); against Streptococcus pneumoniae [8] it was 64 µg/mL (≈ 135 µM); in the test on Pseudomonas aeruginosa [9] it was 128 µg/mL (≈ 270 µM); in the test with Escherichia coli [10], 2 µg/mL (≈ 4.22 µM); in the test on Streptococcus pyogenes [11], 64 µg/mL (≈ 135 µM); in the test with Pseudomonas aeruginosa [12], 32 µg/mL (≈ 67.6 µM). The MIC against Citrobacter freundii [13] amounted to 4 µg/mL (≈ 8.45 µM).

On to `CO/N=C(/C(=O)NC1C(=O)N2C(C(=O)[O-])=C(CO)CS[C@H]12)c1csc(N)n1.[Na+]` (stereo partly drawn), for which the MIC against Proteus vulgaris [1] was 0.0625 µg/mL; in the test with Escherichia coli [2] it was 0.25 µg/mL; in the test with Staphylococcus aureus [3], above 128 µg/mL; in the test on Klebsiella pneumoniae [4], 0.0625 µg/mL; in the test on Staphylococcus aureus [5], 16 µg/mL; in the test on Enterobacter cloacae [6] it was above 128 µg/mL. Further, the MIC against Staphylococcus aureus [7] is above 128 µg/mL; with Streptococcus pneumoniae [8], 0.0625 µg/mL; in the test with Pseudomonas aeruginosa [9], above 128 µg/mL; against Escherichia coli [10] it was 0.25 µg/mL; against Streptococcus pyogenes [11], at most 0.0157 µg/mL; against Pseudomonas aeruginosa [12] it was above 128 µg/mL. In the test on Citrobacter freundii [13], the MIC is above 128 µg/mL.

As for `CO/N=C(/C(=O)NC1C(=O)N2C(C(=O)[O-])=C(CSc3nnnn3CC(=O)O)CS[C@H]12)c1csc(N)n1.[Na+]` (stereo partly drawn), the minimal inhibitory concentration (MIC) was at most 0.0156 µg/mL in the test with Proteus vulgaris [1]; 0.125 µg/mL against Escherichia coli [2]; above 128 µg/mL in the test with Staphylococcus aureus [3]; 0.0625 µg/mL in the test on Klebsiella pneumoniae [4]; 8 µg/mL with Staphylococcus aureus [5]; above 128 µg/mL against Enterobacter cloacae [6]. The minimal inhibitory concentration (MIC) in the test on Staphylococcus aureus [7] is above 128 µg/mL; in the test on Streptococcus pneumoniae [8] it was 0.0313 µg/mL; in the test on Pseudomonas aeruginosa [9] it was 16 µg/mL; against Escherichia coli [10], 0.125 µg/mL; against Streptococcus pyogenes [11], 0.0313 µg/mL; against Pseudomonas aeruginosa [12], above 128 µg/mL. The molecule also displayed an MIC in the test on Citrobacter freundii [13] of 128 µg/mL.

For `O=C([O-])Cn1nnnc1[S-].[Na+].[Na+]`, the MIC against Citrobacter freundii [14], against Escherichia coli [15], in the test on Staphylococcus aureus [16], against Pseudomonas aeruginosa [17], with Proteus vulgaris [18] and against Staphylococcus aureus [19] was above 128 µg/mL throughout. The MIC with Klebsiella pneumoniae [20], in the test with Pseudomonas aeruginosa [21], against Streptococcus pyogenes [22], against Escherichia coli [23], in the test with Streptococcus pneumoniae [24] and against Staphylococcus aureus [25] was above 128 µg/mL in each case. The MIC with Enterobacter cloacae [26] was above 128 µg/mL.

As for `O=C(O)c1cn(C2CC2)c2c(F)c(N3CCNCC3)c(F)cc2c1=O`, the MIC in the test on Proteus vulgaris [1] was 0.0078 µg/mL (≈ 0.0223 µM); in the test on Escherichia coli [2], 0.0078 µg/mL (≈ 0.0223 µM); with Staphylococcus aureus [3], 0.25 µg/mL (≈ 0.716 µM); in the test on Klebsiella pneumoniae [4], 0.25 µg/mL (≈ 0.716 µM); against Staphylococcus aureus [5], 0.125 µg/mL (≈ 0.358 µM); in the test with Enterobacter cloacae [6], 0.0078 µg/mL (≈ 0.0223 µM). For the same molecule, the MIC with Staphylococcus aureus [7] stood at 0.5 µg/mL (≈ 1.43 µM); against Streptococcus pneumoniae [8], 1 µg/mL (≈ 2.86 µM); with Pseudomonas aeruginosa [9] it was 1 µg/mL (≈ 2.86 µM); with Escherichia coli [10], 0.0156 µg/mL (≈ 0.0447 µM); with Streptococcus pyogenes [11], 0.5 µg/mL (≈ 1.43 µM); with Pseudomonas aeruginosa [12] it was 0.25 µg/mL (≈ 0.716 µM). In the test with Citrobacter freundii [13], this molecule showed a minimum inhibitory concentration (MIC) of 0.0313 µg/mL (≈ 0.0896 µM).

These data come from ChEMBL document CHEMBL1127180, “Synthesis and mechanistic studies of a tetrazole-tethered cephalosporin-quinolone hybrid” (1993).
